One data set deals with GLP1R (Homo sapiens, UniProt P43220). In words: hGLP1R potency, cAMP accumulation in CHO-K1 cells stably overexpressing hGLP1R. The class given is cell-based. Details: host or cells: CHO-K1. The conditions noted are these: for EC50: cAMP accumulation, CHO-K1 cells overexpressing hGLP1R, read-out: hGLP1R pEC50 (converted); for SCTR EC50/GLP1R EC50 ratio: selectivity for hGLP1R over hSCTR, cAMP accumulation in CHO-K1 cells. Put shortly: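 2000 cells/well, DPBS + 0.05% casein + 0.5 mM IBMX; 30 min RT stimulation; HTRF cAMP detection after 1 h. Purified: 3-fold ×11, n=2; crude: 10-fold ×5, n=1. EC50 by variable-slope fit.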
GLP1R, sequence (P43220 24-463): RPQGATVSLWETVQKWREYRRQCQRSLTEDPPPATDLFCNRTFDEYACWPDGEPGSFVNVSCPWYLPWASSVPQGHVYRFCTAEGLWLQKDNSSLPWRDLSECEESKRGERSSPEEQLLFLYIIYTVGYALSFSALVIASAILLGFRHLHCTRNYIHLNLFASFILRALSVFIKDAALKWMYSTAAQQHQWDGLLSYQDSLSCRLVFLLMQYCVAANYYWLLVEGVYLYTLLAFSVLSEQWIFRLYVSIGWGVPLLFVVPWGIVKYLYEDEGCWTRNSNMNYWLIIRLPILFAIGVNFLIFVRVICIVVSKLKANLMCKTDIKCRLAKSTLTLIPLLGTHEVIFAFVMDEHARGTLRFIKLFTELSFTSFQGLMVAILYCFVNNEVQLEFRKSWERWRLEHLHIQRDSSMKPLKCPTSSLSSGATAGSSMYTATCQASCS
In general terms: Changes in cAMP serve as a functional read-out for many G protein-coupled receptors.

The nature of data set [1]: Turbidity of crude library peptides (absorbance at 600 nm). The data set is classed as physicochemical. The conditions noted are these: Physical stability of peptides. In a few lines:
(§1)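 Turbidity is the absorbance at 600 nm, taken before heating. Fibril signal is the mean ThT emission at 480 nm (450 nm excitation), read every 10 min over 72 h at 40° C with 700 rpm shaking between reads. Peptides at 267 μM, pH 4.0 acetate or pH 7.0 phosphate buffer (50 mM), 4 μM ThT final.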

Another data set has as its target SCTR (Homo sapiens, UniProt P47872). The experiment in a line: hSCTR potency, cAMP accumulation in CHO-K1 cells stably overexpressing hSCTR. The data set is classed as cell-based. The conditions noted are these: cAMP accumulation, CHO-K1 cells overexpressing hSCTR; read-out: hSCTR pEC50 (converted). Details: alternatively Euroscreen ES-712-AF; FAST-0161L; host or cells: CHO-K1. In a few lines: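 Thawed CHO-K1 cells carrying stable hSCTR are plated into casein/IBMX buffer (0.05%, 0.5 mM), dosed immediately for 30 min at room temperature, then cAMP is detected by TR-FRET. Purified peptides run as 11 three-fold dilutions in duplicate, and curves are fitted with variable slope.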

Data set [2] in a line: Fibril formation of crude library peptides (Thioflavin T). The class given is physicochemical. Details: key: average ThT fluorescence emission at 480 nm (ex 450 nm), raw units. The conditions noted are these: Physical stability of peptides. In a few lines:
as §1

Numbered stars: 1 amine (or outer) side, 2 acyl side, 3 side chain; on linkers, the order of the positions; unused ones are H or OH. Square brackets hold non-standard residues; d marks the D form. Side chains are listed from the residue outwards. Peptide text beside a SMILES is read from it. * marks the point of attachment. C20 diacid = O=C(O)CCCCCCCCCCCCCCCCCCC(=O)*; γGlu = O=C(O)[C@H](CCC(=O)[*:2])N[*:1]; AEEA = NCCOCCOCC(=O)O; Aib = CC(C)(N)C(=O)O

SCTR, sequence (P47872 23-440): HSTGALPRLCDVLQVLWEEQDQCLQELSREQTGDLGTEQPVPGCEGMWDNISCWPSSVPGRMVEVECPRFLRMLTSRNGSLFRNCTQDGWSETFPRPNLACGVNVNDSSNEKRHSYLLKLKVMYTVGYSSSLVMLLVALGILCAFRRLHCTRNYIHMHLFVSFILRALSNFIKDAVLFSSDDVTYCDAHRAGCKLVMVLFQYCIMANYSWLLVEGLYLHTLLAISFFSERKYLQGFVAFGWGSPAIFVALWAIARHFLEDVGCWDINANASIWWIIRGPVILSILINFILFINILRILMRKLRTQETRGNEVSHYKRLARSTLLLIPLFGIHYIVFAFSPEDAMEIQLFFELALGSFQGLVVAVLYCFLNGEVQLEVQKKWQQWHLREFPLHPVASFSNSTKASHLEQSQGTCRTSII

`CC(C)C[C@H](NC(=O)[C@H](Cc1ccccc1)NC(=O)[C@H](CCCNC(=N)N)NC(=O)[C@H](CCC(N)=O)NC(=O)[C@H](CC(C)C)NC(=O)C(C)(C)NC(=O)[C@H](C)NC(=O)[C@H](CCC(=O)O)NC(=O)[C@H](CCC(=O)O)NC(=O)[C@H](CCCCNC(=O)COCCOCCNC(=O)COCCOCCNC(=O)CC[C@H](NC(=O)CCCCCCCCCCCCCCCCCCC(=O)O)C(=O)O)NC(=O)[C@H](CC(C)C)NC(=O)[C@H](Cc1ccccc1)NC(=O)[C@H](CO)NC(=O)[C@@H](NC(=O)[C@H](CC(=O)O)NC(=O)[C@H](CO)NC(=O)[C@@H](NC(=O)[C@H](Cc1ccccc1)NC(=O)[C@@H](NC(=O)CNC(=O)[C@H](CCC(=O)O)NC(=O)C(C)(C)NC(=O)[C@@H](N)Cc1c[nH]cn1)[C@@H](C)O)[C@@H](C)O)C(C)C)C(=O)N[C@@H](CCC(=O)O)C(=O)N[C@@H](Cc1c[nH]cn1)C(=O)N[C@@H](CC(C)C)C(=O)N[C@H](C(N)=O)C(C)C` [compound 173] (H-H[Aib]EGTFTSDVSFLK([AEEA-AEEA-γGlu-C20 diacid])EEA[Aib]LQRFLEHLV-NH2): at GLP1R, the EC50 was 0.0126 nM and the “SCTR EC50/GLP1R EC50 ratio” value stood at 13696. For the same molecule, the “Turbidity (pH 7)” value in data set [1] worked out at 0.08. In addition, the EC50 on SCTR is 158 nM. In addition, the Fibril formation in data set [2] is 2836.

`CC(C)C[C@H](NC(=O)[C@H](Cc1ccccc1)NC(=O)[C@H](CCCNC(=N)N)NC(=O)[C@H](CCC(N)=O)NC(=O)[C@H](CC(C)C)NC(=O)C(C)(C)NC(=O)[C@H](C)NC(=O)[C@H](CCC(=O)O)NC(=O)[C@H](CCC(=O)O)NC(=O)[C@H](CCCCNC(=O)COCCOCCNC(=O)COCCOCCNC(=O)CC[C@H](NC(=O)CCCCCCCCCCCCCCCCCCC(=O)O)C(=O)O)NC(=O)[C@H](CC(C)C)NC(=O)[C@H](Cc1c[nH]c2ccccc12)NC(=O)[C@H](CO)NC(=O)[C@@H](NC(=O)[C@H](CC(=O)O)NC(=O)[C@H](CO)NC(=O)[C@@H](NC(=O)[C@H](Cc1ccccc1)NC(=O)[C@@H](NC(=O)CNC(=O)[C@H](CCC(=O)O)NC(=O)C(C)(C)NC(=O)[C@@H](N)Cc1c[nH]cn1)[C@@H](C)O)[C@@H](C)O)C(C)C)C(=O)N[C@@H](CCC(=O)O)C(=O)N[C@@H](Cc1c[nH]cn1)C(=O)N[C@@H](CC(C)C)C(=O)N[C@H](C(N)=O)C(C)C` [compound 174] (H-H[Aib]EGTFTSDVSWLK([AEEA-AEEA-γGlu-C20 diacid])EEA[Aib]LQRFLEHLV-NH2): at GLP1R, the EC50 was 0.0126 nM and the “SCTR EC50/GLP1R EC50 ratio” value is reported as 7022. In addition, the “Turbidity (pH 7)” value in data set [1] is 0.08. Besides, at SCTR, the EC50 was 100 nM. For the same molecule, in data set [2], the Fibril formation came to 3729.

For `CC[C@H](C)[C@H](NC(=O)C(C)(C)NC(=O)[C@@H](N)Cc1c[nH]cn1)C(=O)NCC(=O)N[C@H](C(=O)N[C@@H](Cc1ccccc1)C(=O)N[C@H](C(=O)N[C@@H](CO)C(=O)N[C@@H](CC(=O)O)C(=O)N[C@H](C(=O)N[C@@H](CO)C(=O)N[C@@H](Cc1ccc(O)cc1)C(=O)N[C@@H](CC(C)C)C(=O)N[C@@H](CCCCNC(=O)COCCOCCNC(=O)COCCOCCNC(=O)CC[C@H](NC(=O)CCCCCCCCCCCCCCCCCCC(=O)O)C(=O)O)C(=O)N[C@@H](CCC(=O)O)C(=O)N[C@@H](CCC(=O)O)C(=O)N[C@@H](C)C(=O)NC(C)(C)C(=O)N[C@@H](CC(C)C)C(=O)N[C@@H](CCC(N)=O)C(=O)N[C@@H](CCCNC(=N)N)C(=O)N[C@@H](Cc1ccccc1)C(=O)N[C@@H](CC(C)C)C(=O)N[C@@H](CCC(=O)O)C(=O)N[C@@H](Cc1c[nH]cn1)C(=O)N[C@@H](CC(C)C)C(=O)N[C@H](C(N)=O)C(C)C)C(C)C)[C@@H](C)O)[C@@H](C)O` [compound 175] (H-H[Aib]IGTFTSDVSYLK([AEEA-AEEA-γGlu-C20 diacid])EEA[Aib]LQRFLEHLV-NH2), at GLP1R, the EC50 was 0.0316 nM and the “SCTR EC50/GLP1R EC50 ratio” value is listed as 247885. Also, the “Turbidity (pH 7)” value in data set [1] worked out at 0.08. Moreover, the EC50 on SCTR is 7940 nM. The same molecule gave a Fibril formation in data set [2] of 3296.

On to `CC(C)C[C@H](NC(=O)[C@H](Cc1ccccc1)NC(=O)[C@H](CCCNC(=N)N)NC(=O)[C@H](CCC(N)=O)NC(=O)[C@H](CC(C)C)NC(=O)C(C)(C)NC(=O)[C@H](C)NC(=O)[C@H](CCC(=O)O)NC(=O)[C@H](CCC(=O)O)NC(=O)[C@H](Cc1ccccc1)NC(=O)[C@H](CC(C)C)NC(=O)[C@H](Cc1ccc(O)cc1)NC(=O)[C@H](CO)NC(=O)[C@@H](NC(=O)[C@H](CC(=O)O)NC(=O)[C@H](CO)NC(=O)[C@@H](NC(=O)[C@H](Cc1ccccc1)NC(=O)[C@@H](NC(=O)CNC(=O)[C@H](CCC(=O)O)NC(=O)C(C)(C)NC(=O)[C@@H](N)Cc1c[nH]cn1)[C@@H](C)O)[C@@H](C)O)C(C)C)C(=O)N[C@@H](CCC(=O)O)C(=O)N[C@@H](CCCCNC(=O)COCCOCCNC(=O)COCCOCCNC(=O)CC[C@H](NC(=O)CCCCCCCCCCCCCCCCCCC(=O)O)C(=O)O)C(=O)N[C@@H](CC(C)C)C(=O)N[C@H](C(N)=O)C(C)C` [compound 176] (H-H[Aib]EGTFTSDVSYLFEEA[Aib]LQRFLEK([AEEA-AEEA-γGlu-C20 diacid])LV-NH2), for which, at GLP1R, the EC50 is 0.0316 nM and the “SCTR EC50/GLP1R EC50 ratio” value is given as 89023. Also, the “Turbidity (pH 7)” value in data set [1] stood at 0.08. In addition, the EC50 at SCTR is 3160 nM. In data set [2], this molecule showed a Fibril formation of 3751.

Turning to `CC[C@H](C)[C@H](NC(=O)[C@H](Cc1ccccc1)NC(=O)[C@H](CCCNC(=N)N)NC(=O)[C@H](CCC(N)=O)NC(=O)[C@H](CC(C)C)NC(=O)[C@H](C)NC(=O)[C@H](C)NC(=O)CNC(=O)[C@H](CCC(=O)O)NC(=O)[C@H](CC(C)C)NC(=O)[C@H](CC(C)C)NC(=O)[C@H](Cc1ccccc1)NC(=O)[C@H](CO)NC(=O)[C@@H](NC(=O)[C@H](CC(=O)O)NC(=O)[C@H](CO)NC(=O)[C@@H](NC(=O)[C@H](Cc1ccccc1)NC(=O)[C@@H](NC(=O)CNC(=O)[C@H](CCC(=O)O)NC(=O)C(C)(C)NC(=O)[C@@H](N)Cc1c[nH]cn1)[C@@H](C)O)[C@@H](C)O)C(C)C)C(=O)N[C@@H](CCC(N)=O)C(=O)N[C@@H](Cc1c[nH]c2ccccc12)C(=O)N[C@@H](CC(C)C)C(=O)N[C@H](C(N)=O)C(C)C` [compound 177] (H-H[Aib]EGTFTSDVSFLLEGAALQRFIQWLV-NH2), the EC50 at GLP1R is 0.0158 nM; at SCTR, 501 nM. Further, on GLP1R, the “SCTR EC50/GLP1R EC50 ratio” value stood at 30839. The “Turbidity (pH 7)” value in data set [1] is reported as 0.53. For the same molecule, the Fibril formation in data set [2] is reported as 260000.

`CC[C@H](C)[C@H](NC(=O)[C@H](Cc1ccccc1)NC(=O)[C@H](CCCNC(=N)N)NC(=O)[C@H](CCC(N)=O)NC(=O)[C@H](CC(C)C)NC(=O)[C@H](C)NC(=O)[C@H](C)NC(=O)CNC(=O)[C@H](CCC(=O)O)NC(=O)[C@H](CC(C)C)NC(=O)[C@H](CC(C)C)NC(=O)[C@H](CCCNC(=N)N)NC(=O)[C@H](CO)NC(=O)[C@@H](NC(=O)[C@H](CC(=O)O)NC(=O)[C@H](CO)NC(=O)[C@@H](NC(=O)[C@H](Cc1ccccc1)NC(=O)[C@@H](NC(=O)CNC(=O)[C@H](CCC(=O)O)NC(=O)C(C)(C)NC(=O)[C@@H](N)Cc1c[nH]cn1)[C@@H](C)O)[C@@H](C)O)C(C)C)C(=O)N[C@@H](CCC(N)=O)C(=O)N[C@@H](Cc1c[nH]c2ccccc12)C(=O)N[C@@H](CC(C)C)C(=O)N[C@H](C(N)=O)C(C)C` [compound 178] (H-H[Aib]EGTFTSDVSRLLEGAALQRFIQWLV-NH2): on GLP1R, the EC50 is 0.0631 nM and the “SCTR EC50/GLP1R EC50 ratio” value came to 891. In addition, the “Turbidity (pH 7)” value in data set [1] was 0.77. In addition, the EC50 on SCTR is 63.1 nM. In data set [2], this molecule gave a Fibril formation of 29072.
